Measured values published in patent US20230271959A1, “HETEROCYCLIC COMPOUND AS BCL-2 INHIBITOR” (Beijing Innocare Pharma Tech Co., Ltd., priority 2020, published 2023).

Key:
[1] = test system: RS4;11 cells (acute lymphoblastic leukemia cells); assay: RS4;11 cell proliferation, CellTilter-Glo luminescence cell viability assay; assay type: cell-based; conditions: Homo sapiens, RS4-11; CTG readout after 48 hours
Description: The effects of the compounds of the present invention on the proliferation of RS4;11 cells were evaluated using a luminescence cell viability assay.
A CellTilter-Glo (CTG) Assay Kit is used to detect ATP, a key indicator of the metabolism of living cells, through a unique, highly sensitive and stable luciferase. The luminescent signal generated in the assay is proportional to the number of the viable cells in the medium, therefore the cell proliferation of RS4;11 can be determined.
CellTilter-Glo reagent (Promega, G7572) is composed of CellTilter-Glo lyophilized powder and CellTilter-Glo buffer, and the lyophilized powder can be dissolved in the buffer for use.
RS4;11 cells (ATCC, CRL-1873) were cultured in RPMI1640 complete medium (Thermofisher, 72400-047) containing 10% FBS (GBICO, 10099-141) and 100 units/ml penicillin-streptomycin solution (Thermofisher, 15140122)), when the cells covered 80-90% in the culture vessel, they were digested and dispersed with 0.25% trypsin (containing EDTA) (Thermofisher, 25200056) and then planted in a white 384-well plate (Thermofisher, 164610), and then the 384-well plate was incubated overnight in a 37° C., 5% CO2 incubator. Compounds were dissolved in 100% DMSO and diluted to […], followed by 4-fold serial dilutions with DMSO to a minimum concentration of 0.061 μM, and each concentration point was further diluted 50-fold with FBS-free RPMI1640 medium. If the IC50 of the compound is very low, the initial concentration of the compound can be reduced. After overnight, 3 μL of the compound diluted in the medium was added to each well, and the mixture was gently centrifuged to mix. The group without cells was used as a negative control (100% inhibition), and the group with 0.2% DMSO was used as a positive control (0% inhibition). The 384-well plate was placed in a 37° C., 5% CO2 incubator for further cultivation. After 48 hours, the plate was taken out and equilibrated to room temperature. 15 μl of CTG reagent was added to each well, the plate was shaken gently for 3 minutes to make sure that the cell lysis was carried out thoroughly, then the plate was kept for 10 minutes to stabilize the luminescence signal, then the luminescence signal was read by EnVision (Perkin Elmer).
The inhibition percentage of the compounds to RS4;11 cell proliferation can be calculated using the following equation:
Inhibition Percentage=100−100*(signal compound-signal negative control)/(signal positive control-signal negative control)
(§1) The IC50 of the compound was calculated from 8 concentration points using XLfit (ID Business Solutions Ltd., UK) software by the following equation:
Y=Bottom+(Top−Bottom)/(1+10^((Log IC50−X)*slope factor))
wherein, Y is the inhibition percentage, Bottom is the bottom plateau of the curve (the bottom plateau value of the S-shaped curve), Top is the top plateau of the curve (the top plateau value of the S-shaped curve), and X is the logarithm of the concentration of the compound to be tested.

[2] = target: T1, human recombinant Bcl-2 protein (Homo sapiens, UniProt P10415); assay: Fluorescence polarization test for inhibition of BCL-2 binding to FITC-BIM; conditions: 5 nM BCL-2, 5 nM FITC-BIM, read-out: FP BCL-2 IC50
T1 construct: purchased Beijing Yigiao Shenzhou Biotechnology Co., Ltd. 10195-HOSE
T1 sequence (P10415 whole entry): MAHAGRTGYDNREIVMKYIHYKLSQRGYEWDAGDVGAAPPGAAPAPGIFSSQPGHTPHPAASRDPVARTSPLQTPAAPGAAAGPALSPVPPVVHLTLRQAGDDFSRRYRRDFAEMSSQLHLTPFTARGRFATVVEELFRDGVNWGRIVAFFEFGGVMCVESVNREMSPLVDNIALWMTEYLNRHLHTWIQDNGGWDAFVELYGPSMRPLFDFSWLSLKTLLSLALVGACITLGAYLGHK
Description: Fluorescence polarization assay was used to evaluate the effect of the compounds of the present invention on the biological activity of BCL-2.
The effects of the compounds on the biological activity of BCL-2 were evaluated by determining the effects of the compounds on the binding activity of BCL-2 to leukemia pro-apoptotic protein (BIM) using an affinity assay method based on the principle of fluorescence polarization. The reaction buffer comprises the following components: PBS (pH 7.4, 3 mM Na2HPO4, 155 mM NaCl, 1 mM KH2PO4), 1 mM DTT; human recombinant Bcl-2 protein (Item No. 10195-HOSE) (purchased from Beijing Yigiao Shenzhou Biotechnology Co., Ltd.) was diluted to 5 nM with the reaction buffer; FITC-labeled BIM polypeptide (purchased from Nanjing GenScript Biotechnology Co., Ltd.) was diluted to 5 nM with the reaction buffer.
The compounds were dissolved in 100% DMSO and diluted to 0.1, 1, 10 μM, followed by 4-fold serial dilutions with DMSO to a minimum concentration of 0.0061, 0.061, 0.61 nM, each concentration point was further diluted 50-fold with the reaction buffer.
3 μL of solution containing the compound and 12 μL of solution containing BCL-2 were added to the black 384-well assay plate, mixed well, and incubated at room temperature for 15 minutes. Subsequently, 15 μL of FITC-BIM solution was added, and the reaction mixture was incubated at room temperature for 30 minutes in dark place, and then the fluorescence polarization was detected immediately on an Envision multi-mode reader (Perkin Elmer), with 480 nm as the excitation wavelength and 535 nm as the emission wavelength. In this experiment, the group without BCL-2 protein was used as a negative control (100% inhibition), and the group with BCL-2 protein but without the compound was used as a positive control (0% inhibition). The inhibition percentage of the compound to the affinity of BCL-2 can be calculated using the following equation: […]
as §1
(§2) Y=Bottom+(Top−Bottom)/(1+10^((log IC50−X)*slope factor))
(§3) where Y is the inhibition percentage, X is the logarithm of the concentration of the compound to be tested, Bottom is the maximum inhibition percentage, Top is the minimum inhibition percentage, and slope factor is the slope coefficient of the curve.

[3] = target: T2, human recombinant Bcl-XL protein (Homo sapiens, UniProt Q07817); assay: Fluorescence polarization test for inhibition of BCL-XL binding to FITC-BIM; conditions: 10 nM BCL-XL, 10 nM FITC-BIM, read-out: FP BCL-XL IC50
T2 construct: purchased Beijing Yiqiao Shenzhou Biotechnology Co., Ltd. 10455-H0SE
T2 sequence (Q07817 whole entry): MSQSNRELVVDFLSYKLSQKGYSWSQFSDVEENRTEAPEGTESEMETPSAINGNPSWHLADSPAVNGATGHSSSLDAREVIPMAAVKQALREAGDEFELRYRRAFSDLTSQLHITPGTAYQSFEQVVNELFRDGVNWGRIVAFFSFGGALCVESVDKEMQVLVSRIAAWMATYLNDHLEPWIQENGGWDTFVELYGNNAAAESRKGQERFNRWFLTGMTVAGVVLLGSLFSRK
Description: Fluorescence polarization assay was used to evaluate the effect of the compounds of the present invention on the biological activity of BCL-XL.
The effects of the compounds on the biological activity of BCL-XL were evaluated by detecting the effects of the compounds on the binding activity of BCL-XL to BIM using an affinity assay method based on the principle of fluorescence polarization. The reaction buffer contains the following components: PBS (pH 7.4, 3 mM Na2HPO4, 155 mM NaCl, 1 mM KH2PO4), 1 mM DTT; human recombinant Bcl-XL protein (Item No. 10455-H0SE) (purchased from Beijing Yiqiao Shenzhou Biotechnology Co., Ltd.) was diluted to 10 nM with reaction buffer; FITC-labeled BIM polypeptide (purchased from Nanjing GenScript Biotechnology Co., Ltd) was diluted to 10 nM with reaction buffer.
The compounds were dissolved in 100% DMSO and diluted to 1 μM, followed by 4-fold serial dilutions in DMSO to a minimum concentration of 0.061 nM, each concentration point was further diluted 50-fold with reaction buffer.
3 μL of solution containing the compound and 12 μL of solution containing BCL-XL were added to the black 384-well assay plate, mixed well, and incubated at room temperature for 15 minutes. Subsequently, 15 μL of FITC-BIM solution was added, and the reaction mixture was incubated at room temperature for 30 minutes in the dark place, and then the fluorescence polarization was detected immediately on an Envision multi-plate reader (Perkin Elmer), with 480 nm as the excitation wavelength and 535 nm as the emission wavelength. In this experiment, the group without BCL-XL protein was used as a negative control (100% inhibition), and the group with BCL-XL protein but without the compound was added as a positive control (0% inhibition). The inhibition percentage of the compound to the affinity of BCL-XL can be calculated using the following equation: […]
as §1, §2, §3

C[C@H]1CCC(CN2CCN(c3ccc(C(=O)NS(=O)(=O)c4cc(F)c(NC[C@H]5COCCO5)c([N+](=O)[O-])c4)c(Oc4cnc5[nH]ccc5c4)c3)C[C@H]2C)=C(c2ccc(Cl)cc2)C1 [Example 17, N-((4-((((S)-1,4-dioxan-2-yl)methyl)amino)-3-fluoro-5-nitrophenyl)sulfonyl)-2-((1H-pyrrolo[2,3-b]pyridin-5-yl)oxy)-4-((R)-4-(((S)-4′-chloro-5-methyl-3,4,5,6-tetrahydro-[1,1′-biphenyl]-2-yl)methyl)-3-methylpiperazin-1-yl)benzamide]
IC50 [1]: 3.1 nM
IC50 [2]: 1.46 nM
IC50 [3]: 953 nM

C[C@@H]1CCC(CN2CCN(c3ccc(C(=O)NS(=O)(=O)c4ccc(NCC5CCOCC5)c([N+](=O)[O-])c4)c(Oc4cnc5[nH]ccc5c4)c3)C[C@H]2C)=C(c2ccc(Cl)cc2)C1 [Example 19, 2-((1H-pyrrolo[2,3-b]pyridin-5-yl)oxy)-4-((R)-4-(((R)-4′-chloro-5-methyl-3,4,5,6-tetrahydro-[1,1′-biphenyl]-2-yl)methyl)-3-methylpiperazin-1-yl)-N-((3-nitro-4-(((tetrahydro-2H-pyran-4-yl)methyl)amino)phenyl)sulfonyl)benzamide]
IC50 [1]: 4.25 nM
IC50 [2]: 2.13 nM
IC50 [3]: > 1000 nM

C[C@@H]1CCC(CN2CCN(c3ccc(C(=O)NS(=O)(=O)c4ccc(NC[C@H]5COCCO5)c([N+](=O)[O-])c4)c(Oc4cnc5[nH]ccc5c4)c3)C[C@H]2C)=C(c2ccc(Cl)cc2)C1 [Example 20, N-((4-((((S)-1,4-dioxan-2-yl)methyl)amino)-3-nitrophenyl)sulfonyl)-2-((1H-pyrrolo[2,3-b]pyridin-5-yl)oxy)-4-((R)-4-(((R)-4′-chloro-5-methyl-3,4,5,6-tetrahydro-[1,1′-biphenyl]-2-yl)methyl)-3-methylpiperazin-1-yl)benzamide]
IC50 [1]: 8.8 nM
IC50 [2]: 2.57 nM
IC50 [3]: > 1000 nM

C[C@@H]1CCC(CN2CCN(c3ccc(C(=O)NS(=O)(=O)c4cc(F)c(NCC5CCOCC5)c([N+](=O)[O-])c4)c(Oc4cnc5[nH]ccc5c4)c3)C[C@H]2C)=C(c2ccc(Cl)cc2)C1 [Example 21, 2-((1H-pyrrolo[2,3-b]pyridin-5-yl)oxy)-4-((R)-4-(((R)-4′-chloro-5-methyl-3,4,5,6-tetrahydro-[1,1′-biphenyl]-2-yl)methyl)-3-methylpiperazin-1-yl)-N-((3-fluoro-5-nitro-4-(((tetrahydro-2H-pyran-4-yl)methyl)amino)phenyl)sulfonyl)benzamide]
IC50 [1]: 8.8 nM
IC50 [2]: 1.97 nM
IC50 [3]: > 1000 nM

C[C@@H]1CCC(CN2CCN(c3ccc(C(=O)NS(=O)(=O)c4cc(F)c(NC[C@H]5COCCO5)c([N+](=O)[O-])c4)c(Oc4cnc5[nH]ccc5c4)c3)C[C@H]2C)=C(c2ccc(Cl)cc2)C1 [Example 22]
IC50 [1]: 4.1 nM
IC50 [2]: 1.49 nM
IC50 [3]: > 1000 nM

C[C@@H]1CCC(CN2CCN(c3ccc(C(=O)NS(=O)(=O)c4ccc(NCC5CCOCC5)c([N+](=O)[O-])c4)c(Oc4cnc5[nH]ccc5c4)c3)[C@H](C)C2)=C(c2ccc(Cl)cc2)C1 [Example 23, 2-((1H-pyrrolo[2,3-b]pyridin-5-yl)oxy)-4-((R)-4-(((R)-4′-chloro-5-methyl-3,4,5,6-tetrahydro-[1,1′-biphenyl]-2-yl)methyl)-2-methylpiperazin-1-yl)-N-((3-nitro-4-(((tetrahydro-2H-pyran-4-yl)methyl)amino)phenyl)sulfonyl)benzamide]
IC50 [1]: 51 nM
IC50 [2]: 9.37 nM
IC50 [3]: > 1000 nM

C[C@@H]1CCC(CN2CCN(c3ccc(C(=O)NS(=O)(=O)c4ccc(NC[C@H]5COCCO5)c([N+](=O)[O-])c4)c(Oc4cnc5[nH]ccc5c4)c3)[C@H](C)C2)=C(c2ccc(Cl)cc2)C1 [Example 24]
IC50 [1]: 24 nM
IC50 [2]: 6.3 nM
IC50 [3]: > 1000 nM

C[C@@H]1CCC(CN2CCN(c3ccc(C(=O)NS(=O)(=O)c4cc(F)c(NCC5CCOCC5)c([N+](=O)[O-])c4)c(Oc4cnc5[nH]ccc5c4)c3)[C@H](C)C2)=C(c2ccc(Cl)cc2)C1 [Example 25, 2-((1H-pyrrolo[2,3-b]pyridin-5-yl)oxy)-4-((R)-(((R)-4′-chloro-5-methyl-3,4,5,6-tetrahydro-[1,1′-biphenyl]-2-yl)methyl)-2-methylpiperazin-1-yl)-N-((3-fluoro-5-nitro-4-(((tetrahydro-2H-pyran-4-yl)methyl)amino)phenyl)sulfonyl)benzamide]
IC50 [1]: 32 nM
IC50 [2]: 2.71 nM
IC50 [3]: > 1000 nM

C[C@@H]1CCC(CN2CCN(c3ccc(C(=O)NS(=O)(=O)c4cc(F)c(NC[C@H]5COCCO5)c([N+](=O)[O-])c4)c(Oc4cnc5[nH]ccc5c4)c3)[C@H](C)C2)=C(c2ccc(Cl)cc2)C1 [Example 26]
IC50 [1]: 14 nM
IC50 [2]: 1.63 nM
IC50 [3]: > 1000 nM
